According to US20260232767A1, “INTERLEUKIN-23 RECEPTOR ANTAGONIST PEPTIDES FOR USE IN THE TREATMENT OF PSORIASIS” (Janssen Pharmaceutica NV, priority 2023, published 2026):

Tested on: subjects with moderate-to-severe plaque psoriasis
Assay: Hematology and chemistry laboratory values by CTCAE grade
Format: in vivo, human
Conditions: through Week 56
Description: The proportion of participants who discontinued study intervention due to one or more AEs was low (n=4). All events were singular in nature with no apparent dose-dependent increase (Table 48 and Table 52). The number of participants with abnormal hematology and chemistry laboratory values with CTCAE toxicity grade≥3 were low through the end of the study (Table 43 through Table 46). There was no apparent dose-dependent increase in laboratory abnormality occurrences.

CC(=O)NCCCC[C@@H]1NC(=O)[C@H](Cc2c[nH]c3c(C)cccc23)NC(=O)[C@H]([C@@H](C)O)NC(=O)[C@H](CC(N)=O)NC(=O)[C@@H](NC(C)=O)C(C)(C)SSC(C)(C)[C@@H](C(=O)N[C@@H](Cc2ccc(OCCN)cc2)C(=O)N[C@@H](Cc2ccc3ccccc3c2)C(=O)NC2(C(=O)N[C@@H](CCC(=O)O)C(=O)N[C@@H](CC(N)=O)C(=O)N[C@@H](Cc3cccnc3)C(=O)N(C)CC(N)=O)CCOCC2)NC1=O [IL-23 receptor antagonist peptide, Ac-[Pen]*-N-T-[W(7-Me)]-[Lys(Ac)]-[Pen]*-Phe[4-(2-aminoethoxy)]-[2-Nal]-[THP]-E-N-[3-Pal]-Sarc-NH2 (*[Pen]-[Pen]* formdisulfidebond)]
0: Alanine Aminotransferase (increased): Subjects with Grade 3 (25 mg BID) | Alanine Aminotransferase (increased): Subjects with Grade 4 (25 mg BID) | Albumin (decreased): Subjects with Grade 1 (25 mg BID) | Albumin (decreased): Subjects with Grade 2 (25 mg BID) | Albumin (decreased): Subjects with Grade 3 (25 mg BID) | Albumin (decreased): Subjects with Grade 4 (25 mg BID) | Albumin (decreased): Subjects with postbaseline maximum toxicity grade >0 (25 mg BID) | Alkaline Phosphatase (increased): Subjects with Grade 2 (25 mg BID) | Alkaline Phosphatase (increased): Subjects with Grade 3 (25 mg BID) | Alkaline Phosphatase (increased): Subjects with Grade 4 (25 mg BID) | Aspartate Aminotransferase (increased): Subjects with Grade 3 (25 mg BID) | Aspartate Aminotransferase (increased): Subjects with Grade 4 (25 mg BID) | Calcium corrected (decreased): Subjects with Grade 2 (25 mg BID) | Calcium corrected (decreased): Subjects with Grade 3 (25 mg BID) | Calcium corrected (decreased): Subjects with Grade 4 (25 mg BID) | Calcium corrected (increased): Subjects with Grade 1 (25 mg BID) | Calcium corrected (increased): Subjects with Grade 2 (25 mg BID) | Calcium corrected (increased): Subjects with Grade 3 (25 mg BID) | Calcium corrected (increased): Subjects with Grade 4 (25 mg BID) | Calcium corrected (increased): Subjects with postbaseline maximum toxicity grade >0 (25 mg BID) | Cholesterol (increased): Subjects with Grade 2 (25 mg BID) | Cholesterol (increased): Subjects with Grade 3 (25 mg BID) | Cholesterol (increased): Subjects with Grade 4 (25 mg BID) | Creatinine (increased): Subjects with Grade 1 (25 mg BID) | Creatinine (increased): Subjects with Grade 2 (25 mg BID) | Creatinine (increased): Subjects with Grade 3 (25 mg BID) | Creatinine (increased): Subjects with Grade 4 (25 mg BID) | Creatinine (increased): Subjects with postbaseline maximum toxicity grade >0 (25 mg BID) | Gamma Glutamyl Transferase (increased): Subjects with Grade 2 (25 mg BID) | Gamma Glutamyl Transferase (increased): Subjects with Grade 3 (25 mg BID) | Gamma Glutamyl Transferase (increased): Subjects with Grade 4 (25 mg BID) | Glucose (decreased): Subjects with Grade 2 (25 mg BID) | Glucose (decreased): Subjects with Grade 3 (25 mg BID) | Glucose (decreased): Subjects with Grade 4 (25 mg BID) | Hemoglobin (g/L) (decreased): subjects with Grade 1 (25 mg BID) | Hemoglobin (g/L) (decreased): subjects with Grade 2 (25 mg BID) | Hemoglobin (g/L) (decreased): subjects with Grade 3 (25 mg BID) | Hemoglobin (g/L) (decreased): subjects with Grade 4 (25 mg BID) | Hemoglobin (g/L) (decreased): subjects with postbaseline maximum toxicity grade >0 (25 mg BID) | Hemoglobin (g/L) (increased): subjects with Grade 2 (25 mg BID) | Hemoglobin (g/L) (increased): subjects with Grade 3 (25 mg BID) | Hemoglobin (g/L) (increased): subjects with Grade 4 (25 mg BID) | Lymphocytes (×10^9/L) (decreased): subjects with Grade 3 (25 mg BID) | Lymphocytes (×10^9/L) (decreased): subjects with Grade 4 (25 mg BID) | Lymphocytes (×10^9/L) (increased): subjects with Grade 1 (25 mg BID) | Lymphocytes (×10^9/L) (increased): subjects with Grade 3 (25 mg BID) | Lymphocytes (×10^9/L) (increased): subjects with Grade 4 (25 mg BID) | Magnesium (decreased): Subjects with Grade 1 (25 mg BID) | Magnesium (decreased): Subjects with Grade 2 (25 mg BID) | Magnesium (decreased): Subjects with Grade 3 (25 mg BID) | Magnesium (decreased): Subjects with Grade 4 (25 mg BID) | Magnesium (decreased): Subjects with postbaseline maximum toxicity grade >0 (25 mg BID) | Magnesium (increased): Subjects with Grade 2 (25 mg BID) | Magnesium (increased): Subjects with Grade 3 (25 mg BID) | Magnesium (increased): Subjects with Grade 4 (25 mg BID) | Neutrophils (×10^9/L) (decreased): subjects with Grade 3 (25 mg BID) | Neutrophils (×10^9/L) (decreased): subjects with Grade 4 (25 mg BID) | Platelets (×10^9/L) (decreased): subjects with Grade 2 (25 mg BID) | Platelets (×10^9/L) (decreased): subjects with Grade 3 (25 mg BID) | Platelets (×10^9/L) (decreased): subjects with Grade 4 (25 mg BID) | Potassium (decreased): Subjects with Grade 1 (25 mg BID) | Potassium (decreased): Subjects with Grade 2 (25 mg BID) | Potassium (decreased): Subjects with Grade 3 (25 mg BID) | Potassium (decreased): Subjects with Grade 4 (25 mg BID) | Potassium (decreased): Subjects with postbaseline maximum toxicity grade >0 (25 mg BID) | Potassium (increased): Subjects with Grade 2 (25 mg BID) | Potassium (increased): Subjects with Grade 3 (25 mg BID) | Potassium (increased): Subjects with Grade 4 (25 mg BID) | Sodium (decreased): Subjects with Grade 1 (25 mg BID) | Sodium (decreased): Subjects with Grade 2 (25 mg BID) | Sodium (decreased): Subjects with Grade 3 (25 mg BID) | Sodium (decreased): Subjects with Grade 4 (25 mg BID) | Sodium (decreased): Subjects with postbaseline maximum toxicity grade >0 (25 mg BID) | Sodium (increased): Subjects with Grade 2 (25 mg BID) | Sodium (increased): Subjects with Grade 3 (25 mg BID) | Sodium (increased): Subjects with Grade 4 (25 mg BID) | Total Bilirubin (increased): Subjects with Grade 2 (25 mg BID) | Total Bilirubin (increased): Subjects with Grade 3 (25 mg BID) | Total Bilirubin (increased): Subjects with Grade 4 (25 mg BID) | Triglycerides (increased): Subjects with Grade 3 (25 mg BID) | WBC (×10^9/L) (decreased): subjects with Grade 3 (25 mg BID) | WBC (×10^9/L) (decreased): subjects with Grade 4 (25 mg BID) | WBC (×10^9/L) (increased): subjects with Grade 1 (25 mg BID) | WBC (×10^9/L) (increased): subjects with Grade 2 (25 mg BID) | WBC (×10^9/L) (increased): subjects with Grade 3 (25 mg BID) | WBC (×10^9/L) (increased): subjects with Grade 4 (25 mg BID) | WBC (×10^9/L) (increased): subjects with postbaseline maximum toxicity grade >0 (25 mg BID) | Alanine Aminotransferase (increased): Subjects with Grade 4 (25 mg QD) | Albumin (decreased): Subjects with Grade 1 (25 mg QD) | Albumin (decreased): Subjects with Grade 2 (25 mg QD) | Albumin (decreased): Subjects with Grade 3 (25 mg QD) | Albumin (decreased): Subjects with Grade 4 (25 mg QD) | Albumin (decreased): Subjects with postbaseline maximum toxicity grade >0 (25 mg QD) | Alkaline Phosphatase (increased): Subjects with Grade 2 (25 mg QD) | Alkaline Phosphatase (increased): Subjects with Grade 3 (25 mg QD) | Alkaline Phosphatase (increased): Subjects with Grade 4 (25 mg QD) | Aspartate Aminotransferase (increased): Subjects with Grade 3 (25 mg QD) | Aspartate Aminotransferase (increased): Subjects with Grade 4 (25 mg QD) | Calcium corrected (decreased): Subjects with Grade 2 (25 mg QD) | Calcium corrected (decreased): Subjects with Grade 3 (25 mg QD) | Calcium corrected (decreased): Subjects with Grade 4 (25 mg QD) | Calcium corrected (increased): Subjects with Grade 1 (25 mg QD) | Calcium corrected (increased): Subjects with Grade 2 (25 mg QD) | Calcium corrected (increased): Subjects with Grade 3 (25 mg QD) | Calcium corrected (increased): Subjects with Grade 4 (25 mg QD) | Calcium corrected (increased): Subjects with postbaseline maximum toxicity grade >0 (25 mg QD) | Cholesterol (increased): Subjects with Grade 2 (25 mg QD) | Cholesterol (increased): Subjects with Grade 3 (25 mg QD) | Cholesterol (increased): Subjects with Grade 4 (25 mg QD) | Creatinine (increased): Subjects with Grade 2 (25 mg QD) | Creatinine (increased): Subjects with Grade 3 (25 mg QD) | Creatinine (increased): Subjects with Grade 4 (25 mg QD) | Gamma Glutamyl Transferase (increased): Subjects with Grade 2 (25 mg QD) | Gamma Glutamyl Transferase (increased): Subjects with Grade 3 (25 mg QD) | Gamma Glutamyl Transferase (increased): Subjects with Grade 4 (25 mg QD) | Glucose (decreased): Subjects with Grade 2 (25 mg QD) | Glucose (decreased): Subjects with Grade 3 (25 mg QD) | Glucose (decreased): Subjects with Grade 4 (25 mg QD) | Hemoglobin (g/L) (decreased): subjects with Grade 2 (25 mg QD) | Hemoglobin (g/L) (decreased): subjects with Grade 3 (25 mg QD) | Hemoglobin (g/L) (decreased): subjects with Grade 4 (25 mg QD) | Hemoglobin (g/L) (increased): subjects with Grade 2 (25 mg QD) | Hemoglobin (g/L) (increased): subjects with Grade 3 (25 mg QD) | Hemoglobin (g/L) (increased): subjects with Grade 4 (25 mg QD) | Lymphocytes (×10^9/L) (decreased): subjects with Grade 1 (25 mg QD) | Lymphocytes (×10^9/L) (decreased): subjects with Grade 2 (25 mg QD) | Lymphocytes (×10^9/L) (decreased): subjects with Grade 3 (25 mg QD) | Lymphocytes (×10^9/L) (decreased): subjects with Grade 4 (25 mg QD) | Lymphocytes (×10^9/L) (decreased): subjects with postbaseline maximum toxicity grade >0 (25 mg QD) | Lymphocytes (×10^9/L) (increased): subjects with Grade 1 (25 mg QD) | Lymphocytes (×10^9/L) (increased): subjects with Grade 2 (25 mg QD) | Lymphocytes (×10^9/L) (increased): subjects with Grade 3 (25 mg QD) | Lymphocytes (×10^9/L) (increased): subjects with Grade 4 (25 mg QD) | Lymphocytes (×10^9/L) (increased): subjects with postbaseline maximum toxicity grade >0 (25 mg QD) | Magnesium (decreased): Subjects with Grade 1 (25 mg QD) | Magnesium (decreased): Subjects with Grade 2 (25 mg QD) | Magnesium (decreased): Subjects with Grade 3 (25 mg QD) | Magnesium (decreased): Subjects with Grade 4 (25 mg QD) | Magnesium (decreased): Subjects with postbaseline maximum toxicity grade >0 (25 mg QD) | Magnesium (increased): Subjects with Grade 2 (25 mg QD) | Magnesium (increased): Subjects with Grade 3 (25 mg QD) | Magnesium (increased): Subjects with Grade 4 (25 mg QD) | Neutrophils (×10^9/L) (decreased): subjects with Grade 2 (25 mg QD) | Neutrophils (×10^9/L) (decreased): subjects with Grade 3 (25 mg QD) | Neutrophils (×10^9/L) (decreased): subjects with Grade 4 (25 mg QD)
9: Alanine Aminotransferase (increased): Subjects with postbaseline maximum toxicity grade >0 (25 mg QD)
7: Alanine Aminotransferase (increased): Subjects with Grade 1 (25 mg QD)
5: Aspartate Aminotransferase (increased): Subjects with Grade 1 (25 mg QD) | Gamma Glutamyl Transferase (increased): Subjects with Grade 1 (25 mg QD) | Gamma Glutamyl Transferase (increased): Subjects with postbaseline maximum toxicity grade >0 (25 mg QD)
8: Triglycerides (increased): Subjects with postbaseline maximum toxicity grade >0 (25 mg BID)
